Measurements: patent US20040147723A1, “Moringa seed proteins” (priority 2001, published 2004)
In brackets after ≈: the same amount, converted by molar mass. Where no end group is shown, it is not given here.

Legend:
[1] = Coagulation test (glass bead suspension sedimentation); conditions: 20 μg/ml, glass beads
Experimental: The test was carried out in a 2 ml volume in a spectrophotometer cell (104QS/HELLMA). To evaluate the coagulation activity, 100 mg/ml suspension of 3.5-7 μm diameter glass beads (Sheriglass 5000, Potters-Ballotini) were diluted in 50 mM phosphate buffer, pH=7.0, to mimic turbid water. Stirring was kept continuously at 800 rpm and OD 500 nm was measured each second (LabVIEW sfotware/National Instruments Corporation) in a Perkin-Elmer 552 spectrophotometer. After 5 minutes of continuous stirring the compound to be tested was added to a final concentration of 20 μg/ml, and stirring was continued for 15 minutes. Active compounds were diluted before the test either in phosphate buffer 10 mM, pH=7.0 (E proteins, PHYTOFLOC and bacterially produced Flo) or in distilled water (synthetic Flo).
To quantify the flocculation efficiency a linear regression was performed on time points corresponding to four minutes before the addition of the flocculating preparation (basal sedimentation) and four minutes after the addition of the flocculating preparation (coagulation-mediated sedimentation). The difference between the coagulation-mediated and basal sedimentation was calculated by subtraction in OD per minutes and multiplied by 1000 (Δ slope).
To assess particle coagulation properties of Flo, a suspension of glass beads under continuous mixing was used to mimic turbid water. […]

E.coli ER2566 = conditions: ER2566, 2 h
Experimental: E.coli ER2566 was grown in LB medium to the exponential phase (A600=0.5-0.6) at 37° C. as above. The culture was centrifuged and resuspended in a same volume of 10 mM phosphate buffer pH=7.0, and E proteins, PHYTOFLOC (2 mg/ml), synthetic Flo (0.1 mg/ml to 2 mg/ml) carrier (buffer) or BSA (2 mg/ml) were added. After 2 hours incubation at 37° C., LB was added to the bacteria culture to obtain A600=0.1. All cultures were incubated at 37° C. at 200 rpm and the culture growth was followed through A600 measurements.
An exponential phase E.coli culture was centrifuged and incubated for 2 hrs at 37° C. in phosphate buffer alone (♦), or in phosphate buffer supplemented by the PHYTOFLOC extract (σ) or by synthetic Flo (ν) at a final concentration of 2 mg/ml. Bacteria were then diluted to A600=0.1 in LB growth medium and incubated at 37° C. under agitation. Optical density measurements were then recorded as indicated at 600 nm.
B. Exponentially growing E.coli culture was processed as indicated in (A) except that bacteria were incubated with different concentrations of synthetic Flo in mg/ml: 0 (ν), 0.1 (σ), 0.25 (O), 0.5 (Σ), 1 (λ) or 2 (B). BSA at 2 mg/ml was used as a non specific protein control (♦).

[2] = system: L. pneumophilia serogroup 10; assay: MIC/MBC in 96-well micro plaque, BYEα medium; format: cell-based
Experimental: (§1) Source of bacteria: The bacteria were isolated from drinking water of hospitals in Ticino, patient strains were obtained from the laboratory of microbiology at the CHUV.
(§2) MIC (minimal inhibitory concentration): MIC was measured with the help of a micro plaque with 96 wells, each containing 100 μl. The growth media were BYEα for L. pneumophilia and TSB for Mycobacterium and were containing a certain concentration of the peptide or antibiotic.
(§3) The media were then subjected to twofold dilutions (1 μl of bacterial suspension at a concentration of 5*10^8 CFU/ml diluted to 5*10^6 CFU/ml).
(§4) The L. pneumophilia culture was incubated at 35° C. and the results were read after 48 and 96 hours. The Mycobacterium culture was incubated at 30° C. for up to seven days.
(§5) MIC is the first well […].
(§6) MBC (minimal bactericidal concentration): 50 μl of the above suspensions were plated on solid media BCYEα or agar with blood. The L. pneumophilia culture was incubated at 35° C. for 48 hours and up to seven days for Mycobacterium.
(§7) The MBC value is the first plate without growth.

[3] = system: L. pneumophilia serogroup 1; assay: MIC/MBC in 96-well micro plaque, BYEα medium; format: cell-based
Experimental: as §1, §2, §3, §4, §5, §6, §7

Molecule	specific coagulation activity compared with PHYTOFLOC [1]	IC50 of antibacterial growth response (E.coli ER2566)	MBC ([2]; L. pneumophilia serogroup 10) [µg/mL]	MIC ([2]; L. pneumophilia serogroup 10, 35° C.) [µg/mL]	MBC [3] [µg/mL]	MIC [3] [µg/mL]
QGPGRQPDFQRCGQQLRNISPPQRCPSLRQAVQLTHQQQGQVGPQQVRQMYRVASNIPST (cysteines drawn unpaired) [synthetic Flo]	higher	approximately 100 μg/ml				
O=C(O)c1cn(C2CC2)c2cc(N3CCNCC3)c(F)cc2c1=O [Ciprofloxacin]			16 to 30 (≈ 48.3 to 90.5 µM)	16 (≈ 48.3 µM)	30 to 60 (≈ 90.5 to 181 µM)	30 (≈ 90.5 µM)
